# Data published in patent US20250169496A1, “USE OF 2-AMINO-3-HYDROXY-3-METHYLBUTYRIC ACID AND/OR 2-AMINO-3-(4-HYDROXYPHENYL) BUTYRIC ACID” (NANJING TIANNONG BIOTECHNOLOGY CO., LTD., priority 2021, published 2025).
# Assays:
# wheat powdery mildew = test: Induced resistance of wheat seedlings to powdery mildew (greenhouse pots); assay type: in vivo, wheat (NAU0686); conditions: for Relative immune effect: wheat powdery mildew; for Number of mycelia and conidium yield on wheat leaves: 10-10,000 nM, with the increase of concentration
# Procedure: Take 2-amino-3-hydroxy-3-methylbutyric acid, dissolve it in distilled water, then dilute the solution with distilled water by gradient into 10 nM, 100 nM, 1,000 nM and 10,000 nM solutions, and set a blank control. Accelerate germination of wheat (NAU0686) seeds, then sow them in sterilized soil bowls, and culture them in a greenhouse of 23 (±1)° C. and 12 h illumination. Spray the 2-amino-3-hydroxy-3-methylbutyric acid solutions at the above concentrations to the stems and leaves of wheat seedlings when the seedlings have grown to have one leaf and one shoot, at an interval of 24 h and twice in total, evenly sprinkle fresh powdery wheat spores on the wheat leaves after 24 h, 3 pots each treatment, 20 plants per pot. Investigate the morbidity level of the wheat in each treatment after 10 d, record the morbidity level according to the wheat powdery mildew grading standard in the Pesticide—Guidelines for the Field Efficacy Trials(I) and calculate the disease index and relative immune effect by the calculation method same as that for the disease index and relative immune effect of tomato spotted wilt. Wheatpowdery mildew grading standard (with leaf as a unit): • Level 1: The area of the disease spots accounts for less than 5% of the whole leaf area; • Level 3: The area of the disease spots accounts for6%-15% of the whole leaf area; • Level 5: The area of the disease spots accounts for 16%-25% of the whole leaf area; • Level 7: The area of the disease spots accounts for26%-50% of the whole leaf area; • Level 9: The area of the disease spots accounts for more than 50% of the whole leaf area.
# [1] = system: tea under low-temperature stress; test: Tea seedlings under low-temperature stress; assay type: in vivo, tea (Baiye 1#); conditions: for PIABS (photosynthetic performance index): tea seedlings after 24 h at −4° C.; for Cold damage index: tea seedlings, 24 h at −4° C., recovered 3 d; for Decrease of cold damage index / Increase of PIABS: 10,000 nM (so in the source), tea, low-temperature stress, vs 0 nM
# Procedure: The tea trees for test are cutting seedling Baiye 1#. Select tea seedlings with consistent growth, move them into plastic bowls with a diameter of 18 cm, put them in a greenhouse of 25° C. and RH 60%-70%, adapt to growth for about one week, and carry out the test. […] The spray treatment method is the same as the Arabidopsis treatment method in Embodiment 6, the time of low-temperature stress is 24 h, and the temperature is set at −4° C. Take out tea seedlings after stress, conduct dark treatment at room temperature for 30 min, then determine the chlorophyll fluorescence of leaves at the top of tea seedlings by plant efficiency Handy-PEA, then put them in a 25° C. greenhouse and recover them for 3 d, observe and calculate the cold damage condition and grade it. The statistics and grading standard of the cold damage index is shown in Table 12, the calculation formula is as follows and the results are as shown in Table 13. [formula] [table]
# [2] = system: wheat under drought stress; test: Hydroponic wheat under drought stress (25% PEG-6000); assay type: in vivo; conditions: for Drought damage index / Dry weight, overground part / Dry weight, underground part / Fresh weight, overground part / Fresh weight, underground part / Root length: wheat, 6 d 25% PEG-6000, recovered 7 d; for Decrease of drought damage index / Increase of fresh weight of the overground part / Increase of fresh weight of the underground part / Increase of root length of wheat seedlings: compared to the control, drought stress
# Procedure: Use a 6-mesh screen as a container for hydroponic culture of wheat, 50 grains per screen, replace the ½ Hoagland nutrient solution once every two days, spray 2-amino-3-hydroxy-3-methylbutyric acid solutions at2-amino-3-hydroxy-3-methylbutyric acid concentrations of 0, 100 and 1,000 nM when the wheat grows to the stage of two leaves and one shoot, and meanwhile, add 0.02% Tween 20 as a surfactant; after two days of continuous spray, replace the hydroponic nutrient solution with a ½ Hoagland nutrient solution containing 25% PEG-6000 for stress treatment,rewater after 6 d of drought stress, recover growth in a normal nutrient solution for 7 d, then observe and determine the drought damage index, and determine the root length and biomass.
# The manifestation features after drought damage of leaves are similar to those after salt damage. By taking reference to the salt damage evaluation indexes, drought damage rate and drought damage index are introduced.
Compound,Relative immune effect (wheat powdery mildew; 10 nM) [%],Relative immune effect (wheat powdery mildew; 100 nM) [%],"Relative immune effect (wheat powdery mildew; 10,000 nM) [%]",Number of mycelia and conidium yield on wheat leaves (wheat powdery mildew),PIABS (photosynthetic performance index) ([1]; 10 nM),Cold damage index ([1]; 10 nM) [%],PIABS (photosynthetic performance index) ([1]; 100 nM),Cold damage index ([1]; 100 nM) [%],"PIABS (photosynthetic performance index) ([1]; 1,000 nM)","Cold damage index ([1]; 1,000 nM) [%]",Decrease of cold damage index [1] [%],Increase of PIABS [1] [%],Drought damage index ([2]; 100 nM) [%],"Dry weight, overground part ([2]; 100 nM)","Dry weight, underground part ([2]; 100 nM) [a g]","Fresh weight, overground part ([2]; 100 nM) [b g]","Fresh weight, underground part ([2]; 100 nM) [b g]",Root length ([2]; 100 nM) [a cm],"Decrease of drought damage index ([2]; 1,000 nM) [%]","Increase of fresh weight of the overground part ([2]; 1,000 nM) [%]",also measured
CC(c1ccc(O)cc1)C(N)C(=O)O (centres unmarked) [2-amino-3-(4-hydroxyphenyl) butyric acid],20.17,34.92,71.12,decreased significantly,31.94 ± 1.37bc,55,34.67 ± 3.27ab,35,38.56 ± 2.23a,30,40,90.8,47,0.83 ± 0.01a g,0.36 ± 0.01,7.34 ± 0.18,3.70 ± 0.03,14.02 ± 0.03,49,45.66,"PIABS (photosynthetic performance index) ([1]; 1 nM): 28.10 ± 3.10cd; Cold damage index ([1]; 1 nM): 60%; Increase of fresh weight of the underground part ([2]; 1,000 nM): 57.93%; Increase of root length of wheat seedlings ([2]; 1,000 nM): 11.47%; Drought damage index ([2]; 1,000 nM): 25%; Dry weight, overground part ([2]; 1,000 nM): 0.93 ± 0.05a g; Dry weight, underground part ([2]; 1,000 nM): 0.39 ± 0.01a g; Fresh weight, overground part ([2]; 1,000 nM): 8.90 ± 0.15a g; Fresh weight, underground part ([2]; 1,000 nM): 4.58 ± 0.01a g; Root length ([2]; 1,000 nM): 14.67 ± 007a cm"
CC(C)(O)C(N)C(=O)O (centres unmarked) [2-amino-3-hydroxy-3-methylbutyric acid],16.85,27.90,65.68,decreased significantly,28.35 ± 1.66c,65,30.67 ± 2.07bc,45,35.23 ± 1.96b,30,60,73,45,0.80 ± 0.01b g,0.33 ± 0.01,7.27 ± 0.02,3.65 ± 0.01,13.94 ± 0.03,51,44.92,"Relative immune effect (wheat powdery mildew; 1,000 nM): 47.24%; Disease index (wheat powdery mildew; concentration greater than or equal to 1,000 nM, susceptible wheat, powdery mildew): lower than 50; PIABS (photosynthetic performance index) ([1]; 10,000 nM): 40.16 ± 2.15a; Cold damage index ([1]; 10,000 nM): 15%; Increase of fresh weight of the underground part ([2]; 1,000 nM): 55.02%; Increase of root length of wheat seedlings ([2]; 1,000 nM): 11.30%; Drought damage index ([2]; 1,000 nM): 26%; Dry weight, overground part ([2]; 1,000 nM): 0.92 ± 0.05a g; Dry weight, underground part ([2]; 1,000 nM): 0.37 ± 0.01a g; Fresh weight, overground part ([2]; 1,000 nM): 8.84 ± 0.09a g; Fresh weight, underground part ([2]; 1,000 nM): 4.48 ± 0.02a g; Root length ([2]; 1,000 nM): 14.58 ± 0.01a cm"
